{
  "source": "patent US20150141381A1",
  "about": "“TETRACYCLINE COMPOUNDS HAVING TARGET THERAPEUTIC ACTIVITIES” (Paratek Pharmaceuticals, Inc., priority 2001, published 2015)",
  "key": {"E. coli mL308 225": {"system": "E. coli mL308 225", "assay": "In Vitro Anti-Bacterial Activity Assay (MIC), gram negative", "assay_type": "cell-based", "settings": "Escherichia coli, ML308225, 18 h"}, "[1]": {"system": "nitric oxide synthesis in the J774 cell line", "assay": "Lipopolysaccharide Stimulation of Macrophage Assay (LSM Assay), inhibition of nitric oxide", "assay_type": "cell-based", "settings": "for Nitrite (inhibition of nitric oxide synthesis): LPS-stimulated J774 cells, Table 3 (Continued) key; for Nitrite: inhibition of nitric oxide synthesis, LPS (100 ng/ml) stimulated J774 cells, nitrite by Greiss Reaction, test compound 56 μg/ml", "experimental": "This assay was used to determine the anti-inflammatory effect of tetracycline compounds of the invention by determining the modulation of nitric oxide, interleukin-10 and interleukin-12 synthesis in the J774 cell line, according to a literature procedure (D'Agostino P. et al. Int Immunopharmacol. 2001 September; 1(9-10):1765-76). J774.2 cells were stimulated with 100 ng/ml lipopolysaccharide (LPS). Nitrite, the spontaneous degradation product of nitric oxide, is measured in cell supernatants using the Greiss Reaction. In the experimental conditions, test tetracycline compounds were added 30 minutes prior to LPS stimulation. Cytotoxicity is determined using Resazurin metabolism. On the first day, a 96-well black-walled plate (except for the bottom row) was seeded with 100 μl of a 2.5×10^6 cells/ml suspension and incubated for two hours at 37° C. and 5% CO2. Towards the end of the two hour incubation period, test compounds were prepared at a concentration of 139 μg/ml, in 1.25% DMSO, a 2.5× concentration ready for addition to the cells.\nAt the end of the two hour incubation period, 80 μl of each of the test tetracycline compound solutions were added to the cell plates to make a final concentration of 56 μg/ml. Next, 80 μl of 1.25% DMSO in media was added to the negative control wells. Then, 80 μl of media was added to the positive control wells. The plate was then incubated for half an hour at 37° C., 5% CO2. A 10× working solution of LPS was prepared at a concentration of 1 μg/ml LPS.\nAfter the half hour incubation period, 20 μl of LPS (1 μg/ml) in media was added to half of the test and control wells to give a final concentration of 100 ng/ml. Next, 20 μl of media was added to other half of the wells. The plate was then incubated for 24 hours at 37° C., 5% CO2. 100 μl of the supernatant from each well was collected for nitrite testing. 60 μl of the supernatant was collected for cytokine testing using an enzyme linked immunosorbant assay. The plates are then stored after being covered with sealer and frozen.\nFor the testing toxicity, the remaining media was blotted from the cell plates and 50 μl of Resazurin was added to each well (0.042 mg/ml in PBS w/Ca and Mg). The plate were then incubated for 45 mins, 37° C., 5% CO2, and for 30 minutes at room temperature. The plate was then read for Resazurin fluorescence.\n50 μl/well of sulfanilamide solution (1% sulfanilamide in 5% […]) was added to supernatant plates. The plates were then incubated for 10 minutes at room temperature in the dark. Next, 50 μl/well NED solution (0.1% N-1-naphthylethylene diamine dihydrochloride in water) was added and incubated for 10 minutes at room temperature in the dark. Plates are then read for nitrite measurement and compared to a standard curve generated from the control wells."}, "S. aureus RN450": {"system": "S. aureus RN450", "assay": "In Vitro Anti-Bacterial Activity Assay (MIC), gram positive", "assay_type": "cell-based", "settings": "Staphylococcus aureus, RN450, 18 h"}, "[2]": {"system": "cultured murine cortical neurons", "assay": "Protection of Cultured Cortical Neurons from Excitotoxic Injury Induced by NMDA (NE Assay)", "assay_type": "cell-based, mice", "settings": "NMDA 62.5 μM, LDH release 24 hours after starting the exposure", "experimental": "Primary cortical astrocyte cultures were prepared from one-day old mice, as described in the literature procedure (Tikka, T M et al. J Immunol. 2001 Jun. 15; 166(12):7527-33). After decapitation, the forebrain cortices were collected, cleaned from meninges and, after mincing, dissociated by incubation in papain/Dnase solution followed by trituration. The dissociated cells were suspended in a culture medium consisting of Eagle's minimal essential medium (MEM) with 10% heat-inactivated fetal bovine serum and glutamine (2 mM) and plated in 75 cm^2 cell culture flasks. The medium was replaced with fresh culture medium at day 7. At confluence (day 12-15), the astrocytes were trypsinized and re-plated into 24-well culture vessels. On day 7-8, the neurons were cultured on top of these confluent astrocyte monolayers.\nCortical neuron suspensions were prepared from embryonic day 17 mice. The cortices were collected and meninges removed. The tissue was minced into small pieces and incubated in trypsin solution. The tissue was suspended using a pipette and after centrifugation resuspended and plated on top of astrocyte cultures at a density of 250,000 cells/well to 24-well culture vessel in Eagle's minimal essential medium (MEM, Earle's salts) supplemented with 20 mM glucose, 2 mM glutamine, 10% fetal bovine serum, and 10% heat-inactivated horse serum (HS). Medium was changed after 5 days to MEM containing 20 mM glucose, 2 mM glutamine, and 10% HS, as well as cytosine arabinoside (final concentration 10 μM) to inhibit cell division, and incubated for 2 days. Subsequently, cultures were fed twice weekly with MEM supplemented with 20 mM glucose, 2 mM glutamine and 10% HS, and used at day 12-15.\nOn the day of experiment, the culture medium was replaced with 1) MEM, 2) MEM containing the test tetracycline compounds. Positive control drug included 10 μM MK-801 (Sigma). […] As a control for total neuronal death, a 24 hour incubation with 500 μM NMDA was used (100% cell death control).\nThe cell viability was assessed by measuring lactate dehydrogenase (LDH) release 24 hours after starting the exposure. The LDH release to the culture medium was measured from cell-free medium using Sigma LDH reagent employing kinetic measurement of conversion of lactate to pyruvate using NADH as a cofactor. The rate of increase in absorbance at 340 nm was directly proportional to the activity of LDH in the sample, and was measured with a Labsystems Multiskan ELISA reader."}, "in vitro": {"assay": "in vitro", "assay_type": "cell-based", "settings": "African green monkey (COS-1) and Chinese hamster (CHO-K1)", "experimental": "COS-1 and CHO-K1 cell suspensions were prepared, seeded into 96-well tissue culture treated black-walled microtiter plates (density determined by cell line), and incubated overnight at 37° C., in 5% CO2 and approximately 95% humidity. The following day, serial dilutions of drug were prepared under sterile conditions and transferred to cell plates. Cell/Drug plates were incubated under the above conditions for 24 hours. Following the incubation period, media/drug was aspirated and 50 μl of Resazurin (0.042 mg/ml in PBS w/Ca and Mg) was added. The plates were then incubated under the above conditions for 2 hours and then in the dark at room temperature for an additional 30 minutes. Fluorescence measurements were taken (excitation 535 nm, emission 590 nm)."}, "[3]": {"system": "MMP-9 production from PMA stimulated THP-1 cells", "assay": "Assay for MMP-9 Production from PMA Stimulated THP-1 Cells", "assay_type": "cell-based, human", "settings": "PMA 10 nM, 24 hours, MMP-9 ELISA of conditioned media", "experimental": "Cultures of human monocyte THP-1 cells were suspended at 1×10^6 cells/mL in RPMI-1640 supplemented with 10% FCS. Cell suspensions (90 μL per well) were seeded into 96-well microtiter plates, and incubated for 30 minutes at 37° C., in 5% CO2 and approximately 95% humidity. Serial dilutions of test drug are prepared at 2× final concentration under sterile conditions and 100 μL was transferred to cell plates. Plates were then incubated as above for 15 minutes. PMA (phorbol-12-myristate-13-acetate) was diluted in media to 20× final concentration. 10 μL of diluted PMA was added to the cell plate, resulting in a final concentration of 10 nM. Plates were then incubated again as above for 24 hours. After 24 hours, 100 μL of conditioned media was tested for MMP-9 protein levels using the Quantikine® Human MMP-9 (total) Immunoassay from R&D Systems. MMP-9 levels were calculated based on a standard curve of purified MMP-9 dilution samples run simultaneously in the ELISA plate. This assay detected both the 92 kDa pro- and 82 kDa active forms of MMP-9."}, "[4]": {"settings": "gram negative bacteria, read-out: Antibiotic Activity Gram − (MIC)"}, "[5]": {"settings": "gram positive bacteria, read-out: Antibiotic Activity Gram + (MIC)"}, "[6]": {"settings": "MIC class, Table 3, read-out: Antibiotic Activity Gram −"}, "[7]": {"settings": "MIC class, Table 3, read-out: Antibiotic Activity Gram +"}},
  "note": "Read-outs that look alike come from different tables or passages of the source.",
  "data": [
    {"smiles": "CN(C)[C@@H]1C(O)=C(C(N)=O)C(=O)[C@@]2(O)C(O)=C3C(=O)c4c(O)ccc(-c5ccccn5)c4C[C@H]3C[C@@H]12", "values": [
      {"measurement": "MIC", "setting": "E. coli mL308 225; [4]", "result": "< 4", "unit": "µg/mL"},
      {"measurement": "Nitrite (inhibition of nitric oxide synthesis)", "setting": "[1]", "result": 3},
      {"measurement": "MIC", "setting": "S. aureus RN450; [5]", "result": "< 4", "unit": "µg/mL"}
    ]},
    {"smiles": "C[C@H]1c2ccc(CN3CCC(C(F)(F)F)CC3)c(O)c2C(=O)C2=C(O)[C@]3(O)C(=O)C(C(N)=O)=C(O)[C@@H](N(C)C)[C@@H]3[C@@H](O)[C@@H]21", "values": [
      {"measurement": "MIC", "setting": "E. coli mL308 225; [4]", "result": "< 4", "unit": "µg/mL"},
      {"measurement": "Nitrite (inhibition of nitric oxide synthesis)", "setting": "[1]", "result": 3},
      {"measurement": "MIC", "setting": "S. aureus RN450; [5]", "result": "< 4", "unit": "µg/mL"}
    ]},
    {"smiles": "CC(=O)Nc1cccc(-c2cc(N(C)C)c3c(c2O)C(=O)C2=C(O)[C@]4(O)C(=O)C(C(N)=O)=C(O)[C@@H](N(C)C)[C@@H]4C[C@@H]2C3)c1", "note": "[G]", "values": [
      {"measurement": "MIC", "setting": "E. coli mL308 225; [6]", "result": "> 4", "unit": "µg/mL"},
      {"measurement": "neuroprotection (cell viability by LDH release)", "setting": "[2]", "result": "good neuroprotection"},
      {"measurement": "Nitrite", "setting": "[1]", "result": "○"},
      {"measurement": "MIC", "setting": "S. aureus RN450; [7]", "result": "> 4", "unit": "µg/mL"}
    ]},
    {"smiles": "CN(C)c1cc(-c2ccc(CN3CCCC3)o2)c(O)c2c1C[C@H]1C[C@H]3[C@H](N(C)C)C(O)=C(C(N)=O)C(=O)[C@@]3(O)C(O)=C1C2=O", "note": "[LJ]", "values": [
      {"measurement": "MIC", "setting": "E. coli mL308 225; [6]", "result": "> 4", "unit": "µg/mL"},
      {"measurement": "Nitrite", "setting": "[1]", "result": "○"},
      {"measurement": "MIC", "setting": "S. aureus RN450; [7]", "result": "> 4", "unit": "µg/mL"}
    ]},
    {"smiles": "CCCCOc1ccc(N(C)C)c2c1C(=O)C1=C(O)[C@]3(O)C(=O)C(C(N)=O)=C(O)[C@@H](N(C)C)[C@@H]3C[C@@H]1C2", "note": "[OM]", "values": [
      {"measurement": "MIC", "setting": "E. coli mL308 225; [6]", "result": "> 4", "unit": "µg/mL"},
      {"measurement": "neuroprotection (cell viability by LDH release)", "setting": "[2]", "result": "good neuroprotection"},
      {"measurement": "Nitrite", "setting": "[1]", "result": "○"},
      {"measurement": "MIC", "setting": "S. aureus RN450; [7]", "result": "> 4", "unit": "µg/mL"}
    ]},
    {"smiles": "CCC(=O)O[C@H]1[C@H]2C(=C(O)[C@]3(O)C(=O)C(C(N)=O)=C(O)[C@@H](N(C)C)[C@H]13)C(=O)c1c(ccc(NC(=O)Nc3cccc4ccccc34)c1O)[C@@H]2C", "note": "[Q]", "values": [
      {"measurement": "MIC", "setting": "E. coli mL308 225; [6]", "result": "> 4", "unit": "µg/mL"},
      {"measurement": "neuroprotection (cell viability by LDH release)", "setting": "[2]", "result": "good neuroprotection"},
      {"measurement": "Nitrite", "setting": "[1]", "result": "○"},
      {"measurement": "MIC", "setting": "S. aureus RN450; [7]", "result": "< 4", "unit": "µg/mL"}
    ]},
    {"smiles": "CC1c2cccc(O)c2C(=O)C2=C(O)C3(O)C(=O)C(C(N)=O)=C(O)C(N(C)C)C3C(O)C21", "note": "(centres unmarked) [doxycycline, Doxycycline]", "values": [
      {"measurement": "IC50 at 24 h", "setting": "in vitro", "result": "> 25", "unit": "µg/mL"}
    ]},
    {"smiles": "CN(C)CCC(=O)c1ccc(O)c2c1C[C@H]1C[C@H]3[C@H](N(C)C)C(O)=C(C(N)=O)C(=O)[C@@]3(O)C(O)=C1C2=O", "note": "[drawing 4022]", "values": [
      {"measurement": "MMP-9 (inhibition of MMP-9 production)", "setting": "[3]", "result": 3}
    ]},
    {"smiles": "CN(C)[C@@H]1C(O)=C(C(N)=O)C(=O)[C@@]2(O)C(O)=C3C(=O)c4c(O)ccc(-c5ccc(NC(=O)c6ccno6)cc5)c4C[C@H]3C[C@@H]12", "note": "[drawing 4097]", "values": [
      {"measurement": "MMP-9 (inhibition of MMP-9 production)", "setting": "[3]", "result": 3}
    ]},
    {"smiles": "CN(C)[C@@H]1C(O)=C(C(N)=O)C(=O)[C@@]2(O)C(O)=C3C(=O)c4c(O)ccc(N5CCOCC5)c4C[C@H]3C[C@@H]12", "note": "[drawing 4289]", "values": [
      {"measurement": "MMP-9 (inhibition of MMP-9 production)", "setting": "[3]", "result": 2}
    ]},
    {"smiles": "CN(C)c1ccc(O)c2c1CC1CC3[C@H](N(C)C)C(O)=C(C(N)=O)C(=O)C3(O)C(O)=C1C2=O", "note": "(some centres unmarked) [minocycline, Minocycline]", "values": [
      {"measurement": "IC50 at 24 h", "setting": "in vitro", "result": "> 25", "unit": "µg/mL"}
    ]}
  ]
}
